As usually defined, the IC50 is the midpoint of a concentration-inhibition curve.

From patent publication US20230322789A1, “PYRAZOLOPYRIDAZINONE COMPOUND, AND PHARMACEUTICAL COMPOSITION AND USE THEREOF” (BroadenBio Co., Ltd., priority 2020, published 2023) come the findings set out here.

Where a name gives a salt, the structure may show the parent alone.

In the experiment the target is HPK1 (Homo sapiens (Human), UniProt Q92918). Briefly: HPK1 kinase activity inhibition test (ADP-Glo, luminescence). Conditions: HPK1 5 nM, ATP 2 μM, read-out: IC50, inhibitory effects of compounds on HPK1 kinase activity. The format is biochemical. As to the method:
1. HPK1 Kinase Activity Inhibition Test
The kinase activity of HPK1 is manifested as activity of autophosphorylation and phosphorylation of downstream substrates. In the process of autophosphorylation, additional substrates are not required, and ATP is consumed to generate ADP. The amount of the product was measured by ADP-Glo reagent and luminescence method to reflect kinase activity.
Test compounds: compounds prepared in the examples of this application.
Prepare compound stock solution: dissolve the compound to be tested in 100% DMSO to make a 10 mM stock solution;
Prepare 4× Kinase Reaction Buffer:
Prepare 2×HPK1 Kinase Solution:
Dilute the stock solution of the compound to be tested by 5 times with […], make a 4-fold equal dilution in a 96-well dilution plate, add 1 μL of the compound to 49 µL of kinase reaction buffer, and shake on a microplate shaker for 20 minutes. Transfer 2 μL of […] kinase solution to 384 reaction plate, add 1 μL of the test compound to the 384 reaction plate (Greiner, 784075), centrifuge for 1 minute (1000 rpm/min), incubate at 25° C. for 10 minutes. Transfer […] of the 4×ATP mixture to a 384 reaction plate, centrifuge for 1 minute (1000 rpm/mm), and incubate at 25° C. for 60 minutes. In the reaction system, the final concentration of DMSO was […]. Transfer 4 μL of ADP-Glo to a 384 reaction plate, centrifuge for 1 minute (1000 rpm/min), and incubate at 25° C. for 40 minutes. Transfer 8 μL detection solution to a 384 reaction plate, centrifuge for 1 minute (1000 rpm/min), and incubate at 25° C. for 40 minutes. The […] signal was read using a Biotek multi-function plate reader, and the […] (half inhibitory concentration) of the compound was obtained using a four-coefficient nonlinear fitting formula.

HPK1, sequence (Q92918 whole entry): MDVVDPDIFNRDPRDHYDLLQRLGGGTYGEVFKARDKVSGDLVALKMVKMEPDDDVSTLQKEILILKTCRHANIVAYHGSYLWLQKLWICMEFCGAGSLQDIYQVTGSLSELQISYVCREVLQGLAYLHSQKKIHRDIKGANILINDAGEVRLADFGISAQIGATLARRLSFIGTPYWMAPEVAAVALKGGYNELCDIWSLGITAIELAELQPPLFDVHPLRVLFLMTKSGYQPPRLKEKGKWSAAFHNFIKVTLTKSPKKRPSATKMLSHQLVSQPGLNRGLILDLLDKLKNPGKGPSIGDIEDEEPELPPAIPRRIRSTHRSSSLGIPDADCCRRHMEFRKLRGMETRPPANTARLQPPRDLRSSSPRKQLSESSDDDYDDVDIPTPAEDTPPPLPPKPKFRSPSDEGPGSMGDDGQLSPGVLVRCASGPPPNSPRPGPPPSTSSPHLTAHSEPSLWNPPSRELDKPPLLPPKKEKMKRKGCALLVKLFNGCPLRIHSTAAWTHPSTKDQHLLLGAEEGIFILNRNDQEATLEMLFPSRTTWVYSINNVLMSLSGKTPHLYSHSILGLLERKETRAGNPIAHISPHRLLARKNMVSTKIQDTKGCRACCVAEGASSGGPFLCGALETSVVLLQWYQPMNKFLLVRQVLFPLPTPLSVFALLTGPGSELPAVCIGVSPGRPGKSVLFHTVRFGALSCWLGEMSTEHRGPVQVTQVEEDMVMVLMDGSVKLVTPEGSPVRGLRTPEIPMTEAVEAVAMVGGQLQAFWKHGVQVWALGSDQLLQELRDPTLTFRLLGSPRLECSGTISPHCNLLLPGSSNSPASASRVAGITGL

Take `COc1cccc(F)c1-n1nc2c(-c3ccc4c(c3)CCN(C)C4)n[nH]c2cc1=O` [Compound 72, 5-(2-fluoro-6-methoxyphenyl)-3-(2-methyl-1,2,3,4-tetrahydroisoquinolin-6-yl)-1H-pyrazolo[4,3-c]pyridazin-6(5H)-one]: the IC50 lay within 50 to 500 nM.
Consider `COc1cccc(F)c1-n1nc2c(-c3cccc(N4CCN(C)CC4)c3F)n[nH]c2cc1=O` [Compound 209, 3-(2-fluoro-3-(4-methylpiperazin-1-yl)phenyl)-5-(2-fluoro-6-methoxyphenyl)-1H-pyrazolo[4,3-c]pyridazin-6(5H)-one], for which the IC50 lay in the range of 50 to 500 nM.
The value for `COc1cc(C)c(-n2nc3c(-c4ccc(N5CCN(C)CC5)cc4)n[nH]c3cc2=O)cn1` [Compound 149] was 500 to 2000 nM; that for `COc1cccc(F)c1-n1nc2c(-c3cccc(N4CCC(O)CC4)c3)n[nH]c2cc1=O` [Compound 206, 3-(3-(4-hydroxylpiperidin-1-yl)phenyl)-5-(2-fluoro-6-methoxyphenyl)-1H-pyrazolo[4,3-c]pyridazin-6(5H)-one] was 50 to 500 nM.
On to `COc1cccc(C)c1-n1nc2c(-c3ccc(N4CCN(C)CC4)nc3)n[nH]c2cc1=O` [Compound 97, 5-(2-methoxy-6-methylphenyl)-3-(6-(4-methylpiperazin-1-yl)pyrid-3-yl)-1H-pyrazolo[4,3-c]pyridazin-6(5H)-one], for which the IC50 is 50 to 500 nM.
The value for `Cc1cccc(F)c1-n1nc2c(-c3ccc4c(c3)CCN(C3CCN(C)CC3)C4)n[nH]c2cc1=O` [Compound 196, 5-(2-fluoro-6-methylphenyl)-3-(2-(1-methylpiperidin-4-yl)-1,2,3,4-tetrahydroisoquinolin-6-yl)-1H-pyrazolo[4,3-c]pyridazin-6(5H)-one hydrochloride] was 50 to 500 nM; that for `Cc1cccc(F)c1-n1nc2c(-c3cccc(N4CC5CCC(C4)N5C)c3)n[nH]c2cc1=O` [Compound 201, 5-(2-fluoro-6-methylphenyl)-3-(3-(8-methyl-3,8-diazabicyclo[3.2.1]octan-3-yl)phenyl)-1H-pyrazolo[4,3-c]pyridazin-6(5H)-one] was ≤ 50 nM.
The value for `Cc1ccncc1-n1nc2c(-c3ccc(C4=CCN(C)CC4)cc3)n[nH]c2cc1=O` [Compound 150, 3-(4-(1-methyl-1,2,3,6-tetrahydropyridin-4-yl)phenyl)-5-(4-methylpyrid-3-yl)-1H-pyrazolo[4,3-c]pyridazin-6(5H)-one] was 500 to 2000 nM.
As for `COC[C@@H]1Cc2ccc(-c3n[nH]c4cc(=O)n(-c5c(C)cccc5F)nc34)cc2CN1C` [Compound 180, (S)-5-(2-fluoro-6-methylphenyl)-3-(3-(methoxymethyl)-2-methyl-1,2,3,4-tetrahydroisoquinolin-7-yl)-1H-pyrazolo[4,3-c]pyridazin-6(5H)-one], the figure is ≤ 50 nM; as for `CC(=O)N1CCN(c2ccc(-c3n[nH]c4cc(=O)n(-c5c(C)cccc5F)nc34)cn2)CC1` [Compound 102, 3-(6-(4-acetylpiperazin-1-yl)pyrid-3-yl)-5-(2-fluoro-6-methylphenyl)-1H-pyrazolo[4,3-c]pyridazin-6(5H)-one], 50 to 500 nM.
Turning to `Cc1cccc(F)c1-n1nc2c(-c3ccc(N4CCN(C)CC4)c(CN(C)C)c3)n[nH]c2cc1=O` [Compound 95, 3-(3-((dimethylamino)methyl)-4-(4-methylpiperazin-1-yl)phenyl)-5-(2-fluoro-6-methylphenyl)-1H-pyrazolo[4,3-c]pyridazin-6(5H)-one], the IC50 fell in the range of 50 to 500 nM.
The value for `Cc1cc(Cl)cc(F)c1-n1nc2c(-c3ccc(N4CCN(C)CC4)cc3)n[nH]c2cc1=O` [Compound 78, 5-(4-chloro-2-fluoro-6-methylphenyl)-3-(4-(4-methylpiperazin-1-yl)phenyl)-1H-pyrazolo[4,3-c]pyridazin-6(5H)-one] was 50 to 500 nM; that for `Cc1cccc(F)c1-n1nc2c(-c3ccc(N4CC5CC(C4)N5C)cc3)n[nH]c2cc1=O` [Compound 91, 5-(2-fluoro-6-methylphenyl)-3-(4-(6-methyl-3,6-diazabicyclo[3.1.1]heptan-3-yl)phenyl)-1H-pyrazolo[4,3-c]pyridazin-6(5H)-one] was ≤ 50 nM.
As for `CCN1CCN(c2ccc(-c3n[nH]c4cc(=O)n(-c5c(C)cccc5F)nc34)cn2)CC1` [Compound 101, 3-(6-(4-ethylpiperazin-1-yl)pyrid-3-yl)-5-(2-fluoro-6-methylphenyl)-1H-pyrazolo[4,3-c]pyridazin-6(5H)-one], the figure is ≤ 50 nM.
The value for `COc1ccc(-n2nc3c(-c4ccc(C5=CCN(C)CC5)cc4)n[nH]c3cc2=O)c(OC)c1` [Compound 4, 5-(2,4-dimethoxyphenyl)-3-(4-(1-methyl-1,2,3,6-tetrahydropyridin-4-yl)phenyl)-1H-pyrazolo[4,3-c]pyridazin-6(5H)-one] was ≤ 50 nM.
As for `COc1cccc(F)c1-n1nc2c(-c3ccc(C4CCN(C)CC4)cc3)n[nH]c2cc1=O` [Compound 24, 5-(2-fluoro-6-methoxyphenyl)-3-(4-(1-methylpiperidin-4-yl)phenyl)-1H-pyrazolo[4,3-c]pyridazin-6(5H)-one], the IC50 is ≤ 50 nM.
The value for `Cc1cccc(F)c1-n1nc2c(-c3cnn(C)c3)n[nH]c2cc1=O` [Compound 17, 5-(2-fluoro-6-methylphenyl)-3-(1-methyl-1H-pyrazol-4-yl)-1H-pyrazolo[4,3-c]pyridazin-6(5H)-one] was 500 to 2000 nM; that for `Cc1cccc(F)c1-n1nc2c(-c3ccc(N4CCN(CC(F)F)CC4)cc3)n[nH]c2cc1=O` [Compound 84] was 50 to 500 nM.
The value for `Cc1ccncc1-n1nc2c(-c3ccc(N4CCN(C)CC4)cc3)n[nH]c2cc1=O` [Compound 47, 3-(4-(4-methylpiperazin-1-yl)phenyl)-5-(4-methylpyrid-3-yl)-1H-pyrazolo[4,3-c]pyridazin-6(5H)-one] was 500 to 2000 nM; that for `COc1ccncc1-n1nc2c(-c3ccc(-c4cnn(C)c4)cc3)n[nH]c2cc1=O` [Compound 152, 5-(4-methoxypyrid-3-yl)-3-(4-(1-methyl-1H-pyrazol-4-yl)phenyl)-1H-pyrazolo[4,3-c]pyridazin-6(5H)-one] was 50 to 500 nM.
As for `COc1ccc(-n2nc3c(-c4ccc(C5CCN(C)CC5)cc4)n[nH]c3cc2=O)c(OC)c1` [Compound 26, 5-(2,4-dimethoxyphenyl)-3-(4-(1-methylpiperidin-4-yl)phenyl)-1H-pyrazolo[4,3-c]pyridazin-6(5H)-one], the IC50 was 500 to 2000 nM.
The value for `Cc1cccc(F)c1-n1nc2c(-c3ccc4c(c3)C(CN)N(C)CC4)n[nH]c2cc1=O` (stereo not drawn) [Compound 186, 3-(1-(aminomethyl)-2-methyl-1,2,3,4-tetrahydroisoquinolin-7-yl)-5-(2-fluoro-6-methylphenyl)-1H-pyrazolo[4,3-c]pyridazin-6(5H)-one hydrochloride] was 500 to 2000 nM.
As for `COc1cccc(F)c1-n1nc2c(-c3ccc(N4CCN5C(=O)CN(C)CC5C4)cc3)n[nH]c2cc1=O` (stereo not drawn) [Compound 132, 8-(4-(5-(2-fluoro-6-methoxyphenyl)-6-oxo-5,6-dihydro-1H-pyrazolo[4,3-c]pyridazin-3-yl)phenyl)-2-methylhexahydro-1H-pyrazino[1,2-a]pyrazin-4(6H)-one], the IC50 was ≤ 50 nM.
The value for `Cc1cccc(F)c1-n1nc2c(-c3ccc4c(c3)CN3CCOC[C@@H]3C4)n[nH]c2cc1=O` [Compound 181, (S)-5-(2-fluoro-6-methylphenyl)-3-(1,3,4,6,11,11a-hexahydro-[1,4]oxazino[4,3-b]isoquinolin-8-yl)-1H-pyrazolo[4,3-c]pyridazin-6(5H)-one] was 50 to 500 nM.
